Several values for one entry are separate records, joined by “and”; a condition that tells them apart may be missing. Equal values may be shown once.
What was measured:
[1] = Absorption and blood level profiles after oral suspensions, three-way crossover; serum alpha-ET by RIA; assay type: in vivo, human; details: 200 mg oral suspension, at 4 hours past administration
Method: Each subject received all three drugs in randomized order with a one-week wash-out period between doses. Following an overnight fast, subjects received 200 mg of test drug suspended in approximately 6 oz of apple juice. Blood samples were drawn immediately prior to drug administration and at 15 minutes, 30 minutes, 1, 2, 4, 8, 12 and 24 hours.

[2] = Second study: body weight gain and food consumption in rats on higher-fat diet with steroid; assay type: in vivo, Sprague-Dawley rats; details: for FOOD CONSUMPTION: Av.Wks 1 - 4 (control 23.4)
Method: A second study was carried out on male Sprague-Dawley rats with initial starting weight of 272 ± 5 gms. […] On the last day of the study the animals were dosed with approximately 1 micro Ci of ^3H labeled material (Amersham) corresponding to the treatment they had received. Groups of three animals- were sacrificed at 1 hour, 4 hours and 12 hours after dosing, and the adrenals, gonads, liver, epididymal fat pads, and blood collected for analysis. Urine and feces were also collected during the post-tracer dosing period.

[3] = Weight gain, food consumption, fat pad and alpha-ET blood level in normal rats fed steroid in diet for three weeks; assay type: in vivo, Sprague-Dawley rats; details: for FOOD CONSUMPTION: 0.367% in diet (dose from method)
Method: All of the above considerations make ET-dione not only suitable but preferred in the treatment of diabetes, obesity and blood suppressive disorders such as aplastic anemia.
Food consumption and body weight were measured weekly. Blood samples were taken at the end of the study for assay of alpha-ET by RIA and measurement of serum total cholesterol, HDL-cholesterol and triglycerides. Liver weight (absolute and % of body weight), total cholesterol, % of esterified cholesterol and triglycerides in the liver were also determined. In addition, epididymal fat pad weights were measured.

[4] = injection (i.m.) in man; cited from earlier work
[5] = compared with DHEA; cited from earlier work

Structure (SMILES): C[C@]12CCC(=O)C[C@H]1CC[C@@H]1[C@@H]2CC[C@]2(C)C(=O)CC[C@@H]12 [ET-dione, 5-beta-androstanedione]
- free alpha-ET levels compared with alpha-ET or beta-ET administration [1]: significantly higher
- % W vs Control Day 28 ([2]; 0.4% in diet): -18.6%
- FOOD CONSUMPTION ([2]; 0.4% in diet): 22.0 g/day
- BODY WEIGHT GAINS ([2]; 0.4% in diet, Day 7 (control 56)): 44
- BODY WEIGHT GAINS ([2]; 0.4% in diet, Day 14 (control 109)): 89
- BODY WEIGHT GAINS ([2]; 0.4% in diet, Day 21 (control 145)): 117
- BODY WEIGHT GAINS ([2]; 0.4% in diet, Day 28 (control 183)): 149
- % W vs Control Day 28 ([2]; 0.8% in diet): -21.3%
- FOOD CONSUMPTION ([2]; 0.8% in diet): 20.6 g/day
- BODY WEIGHT GAINS ([2]; 0.8% in diet, Day 7 (control 56)): 34
- BODY WEIGHT GAINS ([2]; 0.8% in diet, Day 14 (control 109)): 83
- BODY WEIGHT GAINS ([2]; 0.8% in diet, Day 21 (control 145)): 112
- BODY WEIGHT GAINS ([2]; 0.8% in diet, Day 28 (control 183)): 144
- effectiveness in reducing weight gain compared with alpha-ET ([2]; at all concentrations tested): almost twice as effective as alpha-ET
- % W vs Control Day 21 ([3]; 0.367% in diet): -16.6%
- FOOD CONSUMPTION ([3]; Average, mean ± S.E. (control 25.6 ± 0.6), significantly different from control (p < 0.05)): 23.4 ± 0.6 g/rat/day
- FOOD CONSUMPTION ([3]; week 1, mean ± S.E. (control 26.8 ± 0.8)): 23.0 ± 0.6 g/rat/day
- FOOD CONSUMPTION ([3]; week 2, mean ± S.E. (control 24.9 ± 0.6)): 24.6 ± 0.5 g/rat/day
- FOOD CONSUMPTION ([3]; week 3, mean ± S.E. (control […] ± 0.6)): 22.6 ± 0.5 g/rat/day
- Weight ([3]; 0.367% in diet, Day 0, mean ± S.E.): 260 ± 3 g
- W(g) (weight gain) ([3]; 0.367% in diet, Day 7 (control 48)): 38 g
- Weight ([3]; 0.367% in diet, Day 7, mean ± S.E. (control 308 ± 5)): 298 ± 2 g
- W(g) (weight gain) ([3]; 0.367% in diet, Day 14 (control 94)): 81 g
- Weight ([3]; 0.367% in diet, Day 14, mean ± S.E. (control 354 ± 6)): 341 ± 3 g
- W(g) (weight gain) ([3]; 0.367% in diet, Day 21 (control 121), significantly different from control (p < .05)): 101 g and 101+ g
- Weight ([3]; 0.367% in diet, Day 21, mean ± S.E. (control 381 ± 7)): 361 ± 3 g
- Fat Pad as % of Body Wt ([3]; 0.367% in diet, three weeks (control 1.02 ± 0.08)): 0.97 ± 0.07%
- Fat Pad Wt ([3]; epididymal fat pad, 0.367% in diet, three weeks (control 3.88 ± 0.29)): 3.50 ± 0.26 g

Structure (SMILES): C[C@]12CC[C@H](O)C[C@H]1CC[C@@H]1[C@@H]2CC[C@]2(C)C(=O)CC[C@@H]12 [Beta-ET, 5-beta-androstan-3-beta-ol-17-one]
- pyrogenic effect [4]: little pyrogenic effect
- effectiveness in preventing the development of diabetes [5]: four times more effective than DHEA
